Results from the supplement of paper PMC11208160.

Test: recombinant barcode read abundance after kanamycin selection (control-corrected) (log10(CPM+1)); higher = more efficient recombination; sequences stand for … in AGTGCAGAGAAAATCGGCCAGTTTTCTCTGCCTGCAGTCCGCATGCCGT…AGATTTATGCAGCGGACTGCCTTTCTCCCAAAGTGATAAACCGGACAGTATCATGGACCGGTTTTCCCGGTAATCCGTATTTGCAAGGTTGGTTTCACT; site = the 11-nt target
In short: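 In E. coli, a pooled library matched targets to IS621 bridge RNA target-binding loops and was introduced alongside a donor plasmid. Cells went onto chloramphenicol/ampicillin/kanamycin with 0.1 mM IPTG or onto chloramphenicol/ampicillin LB agar as control, in duplicate. Recombination efficiency, from recombinant-junction barcodes as counts per million, is averaged and control-corrected. It is reported as log10(CPM+1).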
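Note: IS621 recombinase and bridge RNA in Escherichia coli cells.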

Sequence | recombinant barcode read abundance (log10)
CTACTAACTTGGGTTCTAACCTGTTGCGT (site CTACTAACTAG) | 0.339
CTACTAACTTGGGTTCTAACCTGTTGCGT (site CTACTAACTAT) | 0.129
CTACTATCTTGGGTTCTAACCTGTTGCGC (site CTACTATCTGC) | 0.937
CTACTATCTTGGGTTCTAACCTGTTGCGC (site TATAACACTCG) | 0.188
CTACTATCTTGGGTTCTAACCTGTTGCGT (site CTACTATCTAC) | 1.58
CTACTATCTTGGGTTCTAACCTGTTGCGT (site TCGAGTGCTCT) | 0.143
CTACTTCCTTGGGTTCTAACCTGTTGCGT (site CTACCTCCTAC) | 0.215
CTACTTCCTTGGGTTCTAACCTGTTGCGT (site CTACTTCCTAC) | 1.69
CTACTTGCTTGGGTTCTAACCTGTTGCAA (site CTAATTGCTTT) | 0.364
CTACTTGCTTGGGTTCTAACCTGTTGCAA (site CTACTTGCTTT) | 0.326
CTACTTGCTTGGGTTCTAACCTGTTGCAA (site CTAGTTGCTTT) | 0.239
CTACTTGCTTGGGTTCTAACCTGTTGCAA (site CTATTTGCTTT) | 0.592
CTAGACACTTGGGTTCTAACCTGTTGCCT (site CTAGACACTAG) | 0.612
CTAGACACTTGGGTTCTAACCTGTTGCCT (site CTCGACACTAG) | 0.0911
CTAGACACTTGGGTTCTAACCTGTTGCCT (site CTGGACACTAG) | 0.0451
CTAGACACTTGGGTTCTAACCTGTTGCCT (site CTTGACACTAG) | 0.512
CTAGACCCTTGGGTTCTAACCTGTTGCGG (site ACGCGTTCTAT) | 0.25
CTAGACCCTTGGGTTCTAACCTGTTGCGG (site CTAGACCCTCC) | 2.56
CTAGACGCTTGGGTTCTAACCTGTTGCCT (site CAAGACGCTAG) | 1.41
CTAGACGCTTGGGTTCTAACCTGTTGCCT (site CTAGACGCTAG) | 0.677
CTAGACTCTTGGGTTCTAACCTGTTGCAT (site CTAGACTCTAT) | 2.88
CTAGACTCTTGGGTTCTAACCTGTTGCAT (site CTAGACTCTCT) | 1.75

Sequence | recombinant barcode read abundance (log10)
CTAGACTCTTGGGTTCTAACCTGTTGCAT (site CTAGACTCTGT) | 0.161
CTAGACTCTTGGGTTCTAACCTGTTGCAT (site CTAGACTCTTT) | 0.365
CTAGCGACTTGGGTTCTAACCTGTTGCGG (site CTAACGACTCC) | 0.637
CTAGCGACTTGGGTTCTAACCTGTTGCGG (site CTAGCGACTCC) | 1.85
CTAGCGTCTTGGGTTCTAACCTGTTGCTT (site CTAGAGTCTAA) | 0.115
CTAGCGTCTTGGGTTCTAACCTGTTGCTT (site CTAGCGTCTAA) | 0.776
CTAGCTCCTTGGGTTCTAACCTGTTGCAG (site CTAGCGGCTCT) | 0.0535
CTAGCTCCTTGGGTTCTAACCTGTTGCAG (site CTAGCTCCTCT) | 1.54
CTAGGACCTTGGGTTCTAACCTGTTGCCA (site CTAGGACCTTG) | 1.27
CTAGGACCTTGGGTTCTAACCTGTTGCCA (site CTAGGAGCTAG) | 0.233
CTAGGAGCTTGGGTTCTAACCTGTTGCTT (site CTAGGAGCTAA) | 0.924
CTAGGAGCTTGGGTTCTAACCTGTTGCTT (site CTAGGAGCTCA) | 0.211
CTAGGAGCTTGGGTTCTAACCTGTTGCTT (site CTAGGAGCTGA) | 0.0912
CTAGGAGCTTGGGTTCTAACCTGTTGCTT (site CTAGGAGCTTA) | 0.0974
CTAGGATCTTGGGTTCTAACCTGTTGCAT (site CTAGGATCTAT) | 2.45
CTAGGATCTTGGGTTCTAACCTGTTGCAT (site CTAGGATCTTG) | 0.301
CTAGGCTCTTGGGTTCTAACCTGTTGCGG (site CTACGCTCTTC) | 0.095
CTAGGCTCTTGGGTTCTAACCTGTTGCGG (site CTAGGCTCTCC) | 2.32
CTAGGTACTTGGGTTCTAACCTGTTGCTT (site ATAGGTACTAA) | 0.0337
CTAGGTACTTGGGTTCTAACCTGTTGCTT (site CTAGGTACTAA) | 0.0303
CTAGTAACTTGGGTTCTAACCTGTTGCCA (site ACGCGTGCTCC) | 0.0245
CTAGTAACTTGGGTTCTAACCTGTTGCCA (site CTAGTAACTTG) | 0.351

Sequence | recombinant barcode read abundance (log10)
CTAGTTACTTGGGTTCTAACCTGTTGCCT (site CTAATTACTAG) | 0.0479
CTAGTTACTTGGGTTCTAACCTGTTGCCT (site CTACTTACTAG) | 0.363
CTAGTTACTTGGGTTCTAACCTGTTGCCT (site CTAGTTACTAG) | 1.11
CTAGTTACTTGGGTTCTAACCTGTTGCCT (site CTATTTACTAG) | 0.177
CTATCCTCTTGGGTTCTAACCTGTTGCAT (site CTAACCTCTAT) | 0.233
CTATCCTCTTGGGTTCTAACCTGTTGCAT (site CTACCCTCTAT) | 1.01
CTATCCTCTTGGGTTCTAACCTGTTGCAT (site CTAGCCTCTAT) | 0.537
CTATCCTCTTGGGTTCTAACCTGTTGCAT (site CTATCCTCTAT) | 1.06
CTATGACCTTGGGTTCTAACCTGTTGCTG (site CTATGACCTCA) | 1.91
CTATGACCTTGGGTTCTAACCTGTTGCTG (site TCGGAGTCTGC) | 0.0682
CTATGCCCTTGGGTTCTAACCTGTTGCGA (site CTATGCCCTTA) | 0.129
CTATGCCCTTGGGTTCTAACCTGTTGCGA (site CTATGCCCTTC) | 2.02
CTATGGACTTGGGTTCTAACCTGTTGCAG (site CTATGGACTAT) | 0.391
CTATGGACTTGGGTTCTAACCTGTTGCAG (site CTATGGACTCT) | 2.39
CTATGGACTTGGGTTCTAACCTGTTGCAG (site CTATGGACTGT) | 0.348
CTATGGACTTGGGTTCTAACCTGTTGCAG (site CTATGGACTTT) | 0.0535
CTATGTGCTTGGGTTCTAACCTGTTGCCT (site CTATGTGCTAA) | 0.158
CTATGTGCTTGGGTTCTAACCTGTTGCCT (site CTATGTGCTAC) | 0.298
CTATGTGCTTGGGTTCTAACCTGTTGCCT (site CTATGTGCTAG) | 1.62
CTATGTGCTTGGGTTCTAACCTGTTGCCT (site CTATGTGCTAT) | 0.305
CTATGTGCTTGGGTTCTAACCTGTTGCGA (site CTATGTGCTTC) | 1.87
CTATGTGCTTGGGTTCTAACCTGTTGCGA (site GTATGTGCTTT) | 0.139

Sequence | recombinant barcode read abundance (log10)
CTATGTGCTTGGGTTCTAACCTGTTGCGT (site CTATGTGCTAA) | 0.0372
CTATGTGCTTGGGTTCTAACCTGTTGCGT (site CTATGTGCTAC) | 1.54
CTATGTGCTTGGGTTCTAACCTGTTGCGT (site CTATGTGCTAG) | 0.0548
CTATGTGCTTGGGTTCTAACCTGTTGCGT (site CTATGTGCTAT) | 0.298
CTATTCCCTTGGGTTCTAACCTGTTGCCT (site CTATTCACTAG) | 0.1
CTATTCCCTTGGGTTCTAACCTGTTGCCT (site CTATTCCCTAG) | 1.52
CTATTCCCTTGGGTTCTAACCTGTTGCCT (site CTATTCGCTAG) | 0.286
CTATTCCCTTGGGTTCTAACCTGTTGCCT (site CTATTCTCTAG) | 0.483
CTATTGTCTTGGGTTCTAACCTGTTGCGG (site CTATTGTCTAC) | 0.714
CTATTGTCTTGGGTTCTAACCTGTTGCGG (site CTATTGTCTCC) | 1.35
CTATTGTCTTGGGTTCTAACCTGTTGCGG (site CTATTGTCTGC) | 0.249
CTATTGTCTTGGGTTCTAACCTGTTGCGG (site CTATTGTCTTC) | 0.17
CTCAATACTTGGGTTCTAACCTGTTGCGA (site CTCAATACTTC) | 1.15
CTCAATACTTGGGTTCTAACCTGTTGCGA (site CTCAATTCTTT) | 0.0435
CTCAGACCTTGGGTTCTAACCTGTTGCTG (site CTCAGACCTCA) | 0.037
CTCAGACCTTGGGTTCTAACCTGTTGCTG (site TCACACACTAG) | 0.463
CTCATATCTTGGGTTCTAACCTGTTGCCA (site CTAATATCTTG) | 0.0804
CTCATATCTTGGGTTCTAACCTGTTGCCA (site CTCATATCTTG) | 0.162
CTCCAGACTTGGGTTCTAACCTGTTGCAG (site CTCCAGACTCT) | 1.87
CTCCAGACTTGGGTTCTAACCTGTTGCAG (site CTGCAGACTCG) | 0.0775
